pKd: −log10 of the molar value. Where two headings read alike, the source gives them in different places.
Experiments:
[1] = target: T1, clone 29 protein (rERβ) (Rattus norvegicus, UniProt Q62986); test: Ligand competition studies against [3H]E2, clone 29 protein in reticulocyte lysate; assay type: binding; design: The open reading frame encodes a protein of 485 amino acid residues (counted from the first methionine); settings: for efficient competition with [3H]E2 for binding: 5 nM [3H]E2, highest concentrations used (1000 fold excess); for times less effective as competitor (compared with unlabelled E2): 5 nM [3H]E2, 16 h at 8° C.
T1 sequence (Q62986 46-530): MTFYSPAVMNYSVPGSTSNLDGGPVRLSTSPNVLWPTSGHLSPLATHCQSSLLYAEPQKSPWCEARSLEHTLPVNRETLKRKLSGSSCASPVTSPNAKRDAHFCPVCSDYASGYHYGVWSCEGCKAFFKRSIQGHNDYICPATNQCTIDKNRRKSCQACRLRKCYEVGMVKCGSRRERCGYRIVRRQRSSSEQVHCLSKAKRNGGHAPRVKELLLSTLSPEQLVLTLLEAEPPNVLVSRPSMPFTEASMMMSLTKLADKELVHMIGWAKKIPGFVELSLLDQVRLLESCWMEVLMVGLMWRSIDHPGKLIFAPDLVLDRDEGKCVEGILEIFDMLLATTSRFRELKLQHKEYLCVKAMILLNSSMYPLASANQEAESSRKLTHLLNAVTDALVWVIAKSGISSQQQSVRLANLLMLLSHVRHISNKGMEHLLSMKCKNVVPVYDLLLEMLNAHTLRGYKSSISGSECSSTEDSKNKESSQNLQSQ
From the text: Bound and unbound steroids were separated with a dextran-coated charcoal assay (Ekman, P., Barrack, E. R., Greene, G. L., Jensen, E. V., & Walsh, P. C. (1983) J. Clin. Endocrinol Metab. 57, 166–176).

[2] = target: T1, clone 29 protein (rERβ); test: Transactivation analysis in CHO-cells (ERE-ALP reporter, clone 29 expression vector); assay type: cell-based; design: The open reading frame encodes a protein of 485 amino acid residues (counted from the first methionine); expressed in transfected cells; host or cells: CHO-K1 cells transiently transfected with pCMV29 and pERE-ALP; settings: for stimulation of transcriptional activity of clone 29 protein: highest concentration tested 1000 nM
From the text: The expression vector pCMV29 was constructed by inserting the 2.6 kb clone 29 fragment in the EcoRI site of the expression vector pCMV5 (Andersson, S., Davis, D.L., Dahlbäck, H., Jörnvall, H., & Russell, D.W. (1989) J. Biol. Chem. 264, 8222–8229). The pERE-ALP reporter construct contains a secreted form of the plancental alkaline phosphatase gene (Berger, J., Hauber, J., Hauber, R., Geiger, R., & Cullen, B.R. (1988) Gene 66 1–10) and the MMTV-LTR in which the glucocorticoid response elements were replaced by the vitellogenin promoter estrogen response element (ERE). The vector pCMV29 containing the clone 29 fragment was deposited with NCIMB, Ferguson Building, Craibstone Estate, Bucksburn, Aberdeen, Scotland, UK AB21 9YA in accordance with the Budapest Treaty on the International Recognition of the Deposit of Microorganisms for the Purposes of Patent Procedure on 26 May 2006, under accession No. NCIMB 41404. The deposit was named “Escherichia coli DH5 prat ER (CmV29)”. All restrictions on the availability to the public of the material deposited will be irrevocably removed upon the granting of a patent.
CHO-K1 cells were seeded in 12-well plates at approximately 1.7×10^5 cells per well in phenol-red free Ham F12 medium with 5% FCS (dextran-coated charcoal treated) and 2 mM Lglutamine. After 24 h the cells were transfected with 250 ng pERE-ALP vector and 50 ng pCMV29 using lipofectamine (Gibco) according to the manufacturer's instructions. After five hours of incubation the cells were washed and refed with 0.5 ml phenol-red free Coon's F-12 medium containing 5% serum substitute (SRC 3000, Tissue Culture Services Ltd., Botolph Claydon, Buckingham, UK) 2 mM Lglutamine and 50 μg/ml gentamicin plus hormones as indicated. After 48 h the medium was assayed for alkaline phosphatase (ALP) activity by a chemiluminescence assay. A 10 μl aliquot of the cell culture medium was mixed with 200 μl assay buffer (10 mM diethanolamine pH 10.0 1 mM MgCl2 and 0.5 mM CSPD (Tropix Inc. Boston, USA) ) and incubated for 20 min at 37° C. before measurement in a microplate luminometer (Luminoskan; Labsystems, Finland) with integral measurement for 1 second. The ALP activity of ERE-reporter alone was set at 1.
To investigate the transcriptional regulatory properties of clone 29 protein, we performed co-transfection experiments in which CHO cells were transfected with a clone 29 protein expression vector and/or an estrogen-responsive reporter gene construct. […] CHO-cells were transiently transfected with the ERE-reporter plasmid and the clone 29 protein expression plasmid. […] Alkaline phosphatase activity (ALP) was measured as described and the activity in the absence of ligand (control) was set at 1.

[3] = target: T2, rERβ (Rattus norvegicus, UniProt Q62986); test: Equilibrium binding saturation experiments with [125I]-E2, rERβ
T2 construct: Clone 29 protein consists of 485 amino acid residues; made in house; host or cells: rabbit reticulocyte lysate in vitro translation (Promega)
T2 sequence (Q62986 46-530): as above
From the text: Equilibrium binding saturation experiments (Kd-determinations)

Compound	efficient competition with [3H]E2 for binding [1]	stimulation of transcriptional activity of clone 29 protein [2]	times less effective as competitor (compared with unlabelled E2) [1]	further results
CC(=O)[C@H]1CC[C@H]2[C@@H]3CCC4=CC(=O)CC[C@]4(C)[C@H]3CC[C@]12C [progesterone]	Neither testosterone, progesterone, corticosterone nor 5α-androstane-3α,17β-diol were efficient competitors	could not stimulate transcriptional activity		
C[C@]12CC[C@@H]3c4ccc(O)cc4CC[C@H]3[C@@H]1C[C@@H](O)[C@@H]2O [estriol]			15 times	
C[C@]12CC[C@H]3[C@@H](CCC4=CC(=O)CC[C@@]43C)[C@@H]1CC[C@@H]2O [testosterone]	Neither testosterone, progesterone, corticosterone nor 5α-androstane-3α,17β-diol were efficient competitors	could not stimulate transcriptional activity		
C[C@]12CC[C@@H](O)C[C@@H]1CC[C@@H]1[C@@H]2CC[C@]2(C)[C@@H](O)CC[C@@H]12 [5α-androstane-3α,17β-diol]	Neither testosterone, progesterone, corticosterone nor 5α-androstane-3α,17β-diol were efficient competitors	could not stimulate transcriptional activity	150 times	
CCCCN(C)C(=O)CCCCCCCCCC[C@@H]1Cc2cc(O)ccc2[C@H]2CC[C@]3(C)[C@@H](O)CC[C@H]3[C@H]12 [ICI-1624384]				suppression of the constitutive transcriptional activity of clone 29 protein ([2]; no E2 added, not shown): could be suppressed
C[C@]12CC[C@@H]3c4ccc(O)cc4CC[C@H]3[C@@H]1C[C@@H](I)[C@@H]2O [[^125I]-E2, 16α[^125I]-17β-estradiol]				pKd ([3]; read-out: Kd (Hill-plot)): 9.62; pKd ([3]; read-out: Kd (Scatchard-plot)): 9.38
C[C@]12C[C@H](O)[C@H]3[C@@H](CCC4=CC(=O)CC[C@@]43C)[C@@H]1CC[C@@H]2C(=O)CO [corticosterone]	Neither testosterone, progesterone, corticosterone nor 5α-androstane-3α,17β-diol were efficient competitors			
C[C@]12CC[C@H](O)C[C@@H]1CC[C@@H]1[C@@H]2CC[C@]2(C)[C@@H](O)CC[C@@H]12 [5α-androstane-3β,17β-diol]		could stimulate transcriptional activity, albeit at higher concentrations		
CC/C(=C(/CC)c1ccc(O)cc1)c1ccc(O)cc1 [diethylstilbestrol]			5 times	
